Test results taken from ChEMBL document CHEMBL1909046, “DrugMatrix in vitro pharmacology data”.

Columns and labels:
[1] = target: T1, Alpha-2C adrenergic receptor (Homo sapiens, UniProt P18825); test: DRUGMATRIX: Adrenergic Alpha-2C radioligand binding (ligand: [3H] MK-912); format: cell membranes, Sf9, Membrane; details: sf9
T1 sequence (P18825 whole entry): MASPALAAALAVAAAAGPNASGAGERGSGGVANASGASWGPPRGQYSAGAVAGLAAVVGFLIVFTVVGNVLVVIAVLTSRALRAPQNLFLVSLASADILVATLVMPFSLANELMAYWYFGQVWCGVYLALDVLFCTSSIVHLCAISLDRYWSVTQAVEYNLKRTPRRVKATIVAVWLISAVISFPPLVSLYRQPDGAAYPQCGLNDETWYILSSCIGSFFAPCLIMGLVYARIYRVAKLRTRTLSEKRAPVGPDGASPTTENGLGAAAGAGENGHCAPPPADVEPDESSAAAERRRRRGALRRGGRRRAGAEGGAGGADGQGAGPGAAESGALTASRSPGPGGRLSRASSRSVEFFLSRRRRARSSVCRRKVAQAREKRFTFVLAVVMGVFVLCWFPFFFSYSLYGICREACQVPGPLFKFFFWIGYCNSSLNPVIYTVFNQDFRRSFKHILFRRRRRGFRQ

Melanocortin receptor 5 = Melanocortin receptor 5 (Homo sapiens, UniProt P33032); format: cell membranes, HEK293, Membrane; details: hek293; also: in other assays of this panel Not Active means under 50% inhibition at 10 µM
Chain of Melanocortin receptor 5 (P33032 whole entry): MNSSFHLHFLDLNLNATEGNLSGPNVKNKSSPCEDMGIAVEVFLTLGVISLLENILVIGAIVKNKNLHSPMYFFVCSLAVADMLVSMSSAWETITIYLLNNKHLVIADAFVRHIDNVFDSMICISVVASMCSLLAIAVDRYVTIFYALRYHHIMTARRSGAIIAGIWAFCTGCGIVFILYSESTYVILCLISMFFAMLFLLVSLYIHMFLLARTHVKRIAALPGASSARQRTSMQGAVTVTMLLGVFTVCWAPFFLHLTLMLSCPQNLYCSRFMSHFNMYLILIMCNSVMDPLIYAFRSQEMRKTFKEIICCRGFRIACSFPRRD

[2] = target: T2, Alpha-1D adrenergic receptor (Homo sapiens, UniProt P25100); format: cell membranes, HEK293, Membrane; details: hek293; also: in other assays of this panel Not Active means under 50% inhibition at 10 µM
T2 sequence (P25100 whole entry): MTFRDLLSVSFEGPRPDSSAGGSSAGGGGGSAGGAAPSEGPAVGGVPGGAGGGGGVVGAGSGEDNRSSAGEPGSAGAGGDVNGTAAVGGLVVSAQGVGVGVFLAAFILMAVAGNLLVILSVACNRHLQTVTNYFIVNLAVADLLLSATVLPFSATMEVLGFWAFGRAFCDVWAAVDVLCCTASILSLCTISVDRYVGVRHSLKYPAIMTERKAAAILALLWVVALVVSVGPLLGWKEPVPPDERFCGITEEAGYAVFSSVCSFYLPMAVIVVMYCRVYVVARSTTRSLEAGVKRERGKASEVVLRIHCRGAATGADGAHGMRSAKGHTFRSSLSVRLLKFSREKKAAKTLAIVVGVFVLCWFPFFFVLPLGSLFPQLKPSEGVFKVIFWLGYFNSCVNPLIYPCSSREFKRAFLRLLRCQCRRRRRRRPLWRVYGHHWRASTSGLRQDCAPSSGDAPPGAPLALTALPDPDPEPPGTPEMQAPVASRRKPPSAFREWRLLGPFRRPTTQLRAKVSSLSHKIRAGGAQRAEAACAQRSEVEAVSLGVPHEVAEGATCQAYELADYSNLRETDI

[3] = target: T3, 5-hydroxytryptamine receptor 2C (Homo sapiens, UniProt P28335); test: DRUGMATRIX: Serotonin (5-Hydroxytryptamine) 5-HT2C radioligand binding (ligand: [3H] Mesulergine); format: cell membranes, CHO-K1, Membrane; details: cho-k1; Not Active = under 50% inhibition at 10 µM
T3 sequence (P28335 whole entry): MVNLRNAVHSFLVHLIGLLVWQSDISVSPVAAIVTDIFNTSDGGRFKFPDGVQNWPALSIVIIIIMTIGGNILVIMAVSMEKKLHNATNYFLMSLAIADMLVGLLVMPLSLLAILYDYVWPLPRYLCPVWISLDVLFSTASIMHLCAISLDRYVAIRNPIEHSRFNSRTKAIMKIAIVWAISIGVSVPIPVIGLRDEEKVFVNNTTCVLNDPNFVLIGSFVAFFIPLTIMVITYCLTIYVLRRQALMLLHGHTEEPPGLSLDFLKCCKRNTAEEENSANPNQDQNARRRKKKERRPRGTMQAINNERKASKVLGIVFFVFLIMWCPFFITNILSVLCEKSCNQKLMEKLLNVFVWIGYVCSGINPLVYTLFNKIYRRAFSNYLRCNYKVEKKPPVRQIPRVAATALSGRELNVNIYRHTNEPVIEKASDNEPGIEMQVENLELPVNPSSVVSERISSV

Vasopressin V1a receptor = Vasopressin V1a receptor (Homo sapiens, UniProt P37288); format: cell membranes, Membrane; details: hek293; also: in other assays of this panel Not Active means under 50% inhibition at 10 µM
Chain of Vasopressin V1a receptor (P37288 whole entry): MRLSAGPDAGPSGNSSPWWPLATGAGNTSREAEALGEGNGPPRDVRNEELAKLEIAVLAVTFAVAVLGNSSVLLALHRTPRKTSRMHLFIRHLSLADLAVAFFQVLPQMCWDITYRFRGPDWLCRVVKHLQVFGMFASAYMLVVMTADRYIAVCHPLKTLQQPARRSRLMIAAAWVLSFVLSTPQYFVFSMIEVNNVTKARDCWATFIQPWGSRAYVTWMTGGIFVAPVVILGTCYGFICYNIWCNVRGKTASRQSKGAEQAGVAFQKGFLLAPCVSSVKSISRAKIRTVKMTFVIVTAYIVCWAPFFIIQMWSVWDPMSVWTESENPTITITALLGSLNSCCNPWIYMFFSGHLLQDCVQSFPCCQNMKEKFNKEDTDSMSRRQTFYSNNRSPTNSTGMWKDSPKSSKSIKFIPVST

[4] = DRUGMATRIX: Sodium/nucleoside co-transporter radioligand binding (ligand: nitrobenzylthioinosine); format: cell membranes, Cavia porcellus, Dunkin-Hartley, Cerebral cortex, Membrane; details: Not Active = under 50% inhibition at 10 µM

NNCCc1ccccc1 [PHENELZINE]
Not Active: IC50 [1] | IC50 (Melanocortin receptor 5) | IC50 [2] | IC50 [3] | IC50 (Vasopressin V1a receptor) | IC50 [4] | Ki [4]

COc1ccc2c(c1OC)C(=O)O[C@@H]2[C@H]1c2c(cc3c(c2OC)OCO3)CCN1C [NOSCAPINE]
Not Active: IC50 [1] | IC50 (Melanocortin receptor 5) | IC50 [2] | IC50 [3] | IC50 (Vasopressin V1a receptor) | IC50 [4] | Ki [4]

COBALTOUS CHLORIDE
Not Active: IC50 [1] | Ki [1] | IC50 (Melanocortin receptor 5) | Ki (Melanocortin receptor 5) | IC50 [2] | Ki [2] | IC50 [3] | Ki [3] | IC50 (Vasopressin V1a receptor) | Ki (Vasopressin V1a receptor) | IC50 [4] | Ki [4]

CC(=O)Oc1ccccc1C(=O)O [ASPIRIN]
Not Active: IC50 [1] | IC50 (Melanocortin receptor 5) | IC50 [2] | IC50 [3] | IC50 (Vasopressin V1a receptor) | IC50 [4] | Ki [4]

CCN(CC)CCNC(=O)c1ccc(N)cc1 [PROCAINAMIDE]
Not Active: IC50 [1] | IC50 (Melanocortin receptor 5) | IC50 [2] | IC50 [3] | IC50 (Vasopressin V1a receptor) | IC50 [4] | Ki [4]

Cc1c(O)cccc1C(=O)N[C@@H](CSc1ccccc1)[C@H](O)CN1C[C@H]2CCCC[C@H]2C[C@H]1C(=O)NC(C)(C)C
Not Active: IC50 [1] | IC50 (Melanocortin receptor 5) | IC50 [2] | IC50 [3] | IC50 (Vasopressin V1a receptor) | IC50 [4] | Ki [4]

Cc1cccc(C)c1NC(=O)C1CCCCN1C (stereo not drawn) [MEPIVACAINE]
Not Active: IC50 [1] | IC50 (Melanocortin receptor 5) | IC50 [2] | IC50 [3] | IC50 (Vasopressin V1a receptor) | IC50 [4] | Ki [4]

O=c1[nH]c(=O)n([C@H]2C[C@H](O)[C@@H](CO)O2)cc1F [FLOXURIDINE]
Not Active: IC50 [1] | IC50 (Melanocortin receptor 5) | IC50 [2] | IC50 [3] | IC50 (Vasopressin V1a receptor) | IC50 [4] | Ki [4]

O=C(O)CC(O)(CC(=O)O)C(=O)O [CITRIC ACID]
Not Active: IC50 [1] | IC50 (Melanocortin receptor 5) | IC50 [2] | IC50 [3] | IC50 (Vasopressin V1a receptor) | IC50 [4] | Ki [4]

Cc1cc(O)cc(C)c1Cl [CHLOROXYLENOL]
Not Active: IC50 [1] | IC50 (Melanocortin receptor 5) | IC50 [2] | IC50 [3] | IC50 (Vasopressin V1a receptor) | IC50 [4] | Ki [4]

O=C(O)CCCc1cccs1
Not Active: IC50 [1] | IC50 (Melanocortin receptor 5) | IC50 [2] | IC50 [3] | IC50 (Vasopressin V1a receptor) | IC50 [4] | Ki [4]

CCCNC(=O)NS(=O)(=O)c1ccc(Cl)cc1 [CHLORPROPAMIDE]
Not Active: IC50 [1] | IC50 (Melanocortin receptor 5) | IC50 [2] | IC50 [3] | IC50 (Vasopressin V1a receptor) | IC50 [4] | Ki [4]

CC(=O)OC[C@H]1O[C@@H](n2ncc(=O)[nH]c2=O)[C@H](OC(C)=O)[C@@H]1OC(C)=O [AZARIBINE]
Not Active: IC50 [1] | IC50 (Melanocortin receptor 5) | IC50 [2] | IC50 [3] | IC50 (Vasopressin V1a receptor) | IC50 [4] | Ki [4]

NCCCNCCSP(=O)(O)O [AMIFOSTINE]
Not Active: IC50 [1] | IC50 (Melanocortin receptor 5) | IC50 [2] | IC50 [3] | IC50 (Vasopressin V1a receptor) | IC50 [4] | Ki [4]
